Experiments:
[1] = system: Trichophyton interdigitale; test: MIC broth microdilution (CLSI); type: cell-based; conditions: Trichophyton interdigitale R-234
Method: (§1) Antifungal susceptibility was determined by broth microdilution according to the CLSI guidelines described in M27-Ed4 ([16]).

[2] = system: Aspergillus lentulus; test: checkerboard drug interaction (FICI, MICc); type: cell-based;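 note: simplified diagonal checkerboard screen pairing antifungals with FPPS inhibitors, with the interaction index calculated under the Loewe additivity model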
Method: (§2) Drug interactions between antifungals and FPPS inhibitors were investigated using a simplified checkerboard diagonal screening method ([45]). […] FICIs were determined according to the Loewe additivity model ([17]).

[3] = system: Pichia kudriavzevii; test: MIC broth microdilution (CLSI); type: cell-based; conditions: Pichia kudriavzavii ATCC 6258
Method: (§3) Antifungal susceptibility was determined by broth microdilution according to the CLSI guidelines described in M27-Ed4 ([16]). […] MFC was determined by back-plating drug-treated cultures from MIC broths onto SDA plates. The MFC was defined as the lowest concentration from which no colonies could be cultured.

[4] = system: Lomentospora prolificans; test: checkerboard drug interaction (FICI, MICc);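 note: simplified diagonal checkerboard screen pairing antifungals with FPPS inhibitors, FICI calculated under the Loewe additivity model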
Method: as §2

[5] = system: Rhizopus oryzae; test: checkerboard drug interaction (FICI, MICc); type: cell-based;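 note: simplified diagonal checkerboard screen pairing antifungals with FPPS inhibitors, FICI calculated under the Loewe additivity model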
Method: as §2

[6] = system: Cryptococcus deneoformans; test: checkerboard drug interaction (FICI, MICc); type: cell-based;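 note: simplified diagonal checkerboard screen pairing antifungals with FPPS inhibitors, FICI calculated under the Loewe additivity model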
Method: as §2

[7] = system: Pichia kudriavzevii; test: checkerboard drug interaction (FICI, MICc); type: cell-based;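 note: antifungal plus FPPS inhibitor interactions tested in a simplified diagonal checkerboard screen, with FICI calculated under the Loewe additivity model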
Method: as §2

[8] = system: Aspergillus udagawae; test: checkerboard drug interaction (FICI, MICc); type: cell-based;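 note: simplified diagonal checkerboard screen pairing antifungals with FPPS inhibitors, FICI calculated using the Loewe additivity model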
Method: as §2

[9] = system: Trichophyton interdigitale; test: checkerboard drug interaction (FICI, MICc);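 note: simplified diagonal checkerboard screen pairing antifungals with FPPS inhibitors, FICI values calculated under the Loewe additivity model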
Method: as §2

[10] = system: Cryptococcus gattii; test: MIC broth microdilution (CLSI); type: cell-based; conditions: Cryptococcus gattii PNG27
Method: as §1

[11] = system: Aspergillus terreus; test: MIC broth microdilution (CLSI); type: cell-based; conditions: Aspergillus terreus 75-16-089-2500
Method: as §1

[12] = system: Aspergillus niger; test: MIC broth microdilution (CLSI); type: cell-based; conditions: Aspergillus niger 111
Method: as §1

[13] = system: Candida dubliniensis; test: MIC broth microdilution (CLSI); type: cell-based; conditions: Candida dubliniensis M230642
Method: as §1

[14] = system: Nannizzia gypsea; test: checkerboard drug interaction (FICI, MICc);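 note: simplified diagonal checkerboard screen pairing antifungals with FPPS inhibitors, FICI derived using the Loewe additivity model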
Method: as §2

[15] = system: Scedosporium apiospermum; test: checkerboard drug interaction (FICI, MICc); type: cell-based;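 note: simplified diagonal checkerboard screen of antifungal plus FPPS inhibitor pairs, with FICI computed under the Loewe additivity model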
Method: as §2

[16] = system: Nannizzia gypsea; test: MIC broth microdilution (CLSI); type: cell-based; conditions: Nannizzia gypsea R-131
Method: as §1

[17] = system: Paraphyton cookei; test: MIC broth microdilution (CLSI); type: cell-based; conditions: Paraphyton cookei R-639
Method: as §1

[18] = system: Candida auris; test: MIC broth microdilution (CLSI); type: cell-based; conditions: Candida auris CDC-0384
Method: as §1

[19] = system: Aspergillus lentulus; test: MIC broth microdilution (CLSI); type: cell-based; conditions: Aspergillus lentulus DTO 341-G7
Method: as §1

[20] = system: Paraphyton cookei; test: checkerboard drug interaction (FICI, MICc);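 note: simplified diagonal checkerboard screen pairing an antifungal with an FPPS inhibitor, FICI computed under the Loewe additivity model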
Method: as §2

[21] = system: Scedosporium apiospermum; test: MIC broth microdilution (CLSI); type: cell-based; conditions: Scedosporium apiospermum 04-16-022-2268
Method: as §1

[22] = system: Aspergillus felis; test: MIC broth microdilution (CLSI); type: cell-based; conditions: Aspergillus felis IHE87256683D6
Method: as §1

[23] = system: Aspergillus parafelis; test: checkerboard drug interaction (FICI, MICc);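 note: simplified diagonal checkerboard screen pairing antifungals with FPPS inhibitors, FICI calculated under the Loewe additivity model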
Method: as §2

[24] = system: Microsporum canis; test: checkerboard drug interaction (FICI, MICc); type: cell-based
Method: as §2

[25] = system: Cryptococcus gattii; test: checkerboard drug interaction (FICI, MICc); type: cell-based;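 note: simplified diagonal checkerboard screen pairing antifungals with FPPS inhibitors, FICI computed under the Loewe additivity model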
Method: as §2

[26] = system: Mucor circinelloides; test: MIC broth microdilution (CLSI); type: cell-based; conditions: Mucor circinelloides 80-14-240-5007
Method: as §1

[27] = system: Microsporum canis; test: MIC broth microdilution (CLSI); conditions: Microsporum canis R-232
Method: as §1

[28] = system: Rhizopus oryzae; test: MIC broth microdilution (CLSI); type: cell-based; conditions: Rhizopus oryzae 04-14-364-1703
Method: as §1

[29] = system: Fusarium solani; test: checkerboard drug interaction (FICI, MICc); type: cell-based;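 note: simplified diagonal checkerboard screen pairing antifungals with FPPS inhibitors, FICI derived under the Loewe additivity model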
Method: as §2

[30] = system: Candida parapsilosis; test: MIC broth microdilution (CLSI); type: cell-based; conditions: Candida parapsilosis ATCC 22018
Method: as §3

[31] = system: Cryptococcus bacillisporus; test: checkerboard drug interaction (FICI, MICc); type: cell-based;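 note: interaction of antifungals with FPPS inhibitors assessed by a simplified diagonal checkerboard screen, with FICI computed under the Loewe additivity model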
Method: as §2

[32] = system: Nannizzia nana; test: MIC broth microdilution (CLSI); type: cell-based; conditions: Nannizzia nana R-133
Method: as §1

[33] = system: Fusarium solani; test: MIC broth microdilution (CLSI); conditions: Fusarium solani 04-16-056-1862
Method: as §1

[34] = system: Epidermophyton floccosum; test: checkerboard drug interaction (FICI, MICc)
Method: as §2

[35] = system: Cryptococcus tetragattii; test: checkerboard drug interaction (FICI, MICc); type: cell-based;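 note: simplified diagonal checkerboard screen pairing antifungals with FPPS inhibitors, with FICI calculated under the Loewe additivity model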
Method: as §2

## CCCCCCCCCCn1cc[n+](CC(O)(P(=O)(O)O)P(=O)(O)O)c1 [10-ZOL, Decyl-zoledronate]
[1]
  MIC / MEC: 1 µg/mL
[2]; 5FC:10-ZOL
  FICI: ≥4
[2]; CAS:10-ZOL
  FICI: 2
[2]; FLC:10-ZOL
  FICI: 1.02
[2]; with 5FC
  bisphosphonate MICc: 1
[2]; with AMB
  bisphosphonate MICc: 2
[2]; with CAS
  bisphosphonate MICc: 2
[2]; with FLC
  bisphosphonate MICc: 2
[2]; with ITR
  bisphosphonate MICc: 1
[2]; with KET
  bisphosphonate MICc: 1
[2]; with VOR
  bisphosphonate MICc: 1
[3]
  MIC / MEC: 4 µg/mL
[4]; CAS:10-ZOL
  FICI: ≥4
[4]; ITR:10-ZOL
  FICI: 0.5
[4]; with 5FC
  bisphosphonate MICc: 1
[4]; with AMB
  bisphosphonate MICc: 2
[4]; with CAS
  bisphosphonate MICc: 0.5
[4]; with FLC
  bisphosphonate MICc: 1
[4]; with ITR
  bisphosphonate MICc: 0.5
[4]; with KET
  bisphosphonate MICc: 1
[4]; with VOR
  bisphosphonate MICc: 1
[5]; 5FC:10-ZOL
  FICI: ≥4
[5]; CAS:10-ZOL
  FICI: ≥4
[5]; VOR:10-ZOL
  FICI: 1
[5]; with 5FC
  bisphosphonate MICc: 2
[5]; with AMB
  bisphosphonate MICc: 0.25
[5]; with CAS
  bisphosphonate MICc: 0.5
[5]; with FLC
  bisphosphonate MICc: 2
[5]; with ITR
  bisphosphonate MICc: 2
[5]; with KET
  bisphosphonate MICc: 2
[5]; with VOR
  bisphosphonate MICc: 2
[6]; FLC:10-ZOL
  FICI: 1
[6]; ITR:10-ZOL
  FICI: 1.55
[6]; KET:10-ZOL
  FICI: 0.61
[6]; VOR:10-ZOL
  FICI: 1.3
[6]; with 5FC
  bisphosphonate MICc: 0.5
[6]; with AMB
  bisphosphonate MICc: 0.125
[6]; with CAS
  bisphosphonate MICc: 1
[6]; with FLC
  bisphosphonate MICc: 0.5
[6]; with ITR
  bisphosphonate MICc: 0.5
[6]; with KET
  bisphosphonate MICc: 0.125
[6]; with VOR
  bisphosphonate MICc: 0.25
[7]; AMB:10-ZOL
  FICI: 1
[7]; KET:10-ZOL
  FICI: 1.5
[7]; VOR:10-ZOL
  FICI: 1.03
[7]; with 5FC
  bisphosphonate MICc: 1
[7]; with AMB
  bisphosphonate MICc: 2
[7]; with CAS
  bisphosphonate MICc: 0.5
[7]; with FLC
  bisphosphonate MICc: 0.5
[7]; with ITR
  bisphosphonate MICc: 0.25
[7]; with KET
  bisphosphonate MICc: 2
[7]; with VOR
  bisphosphonate MICc: 0.125
[8]; 5FC:10-ZOL
  FICI: 1
[8]; CAS:10-ZOL
  FICI: 1
[8]; FLC:10-ZOL
  FICI: 1.02
[8]; ITR:10-ZOL
  FICI: 0.5
[8]; VOR:10-ZOL
  FICI: 1.03
[8]; with 5FC
  bisphosphonate MICc: 0.5
[8]; with AMB
  bisphosphonate MICc: 0.5
[8]; with CAS
  bisphosphonate MICc: 0.5
[8]; with FLC
  bisphosphonate MICc: 1
[8]; with ITR
  bisphosphonate MICc: 0.25
[8]; with KET
  bisphosphonate MICc: 0.5
[8]; with VOR
  bisphosphonate MICc: 1
[9]; 5FC:10-ZOL
  FICI: 1.5
[9]; CAS:10-ZOL
  FICI: 3
[9]; with 5FC
  bisphosphonate MICc: 1
[9]; with AMB
  bisphosphonate MICc: 0.25
[9]; with CAS
  bisphosphonate MICc: 1
[9]; with FLC
  bisphosphonate MICc: 1
[9]; with ITR
  bisphosphonate MICc: 0.125
[9]; with KET
  bisphosphonate MICc: 0.5
[9]; with VOR
  bisphosphonate MICc: 0.5
[10]
  MIC / MEC: 0.5 µg/mL
[11]
  MIC / MEC: 0.5 µg/mL
[12]
  MIC / MEC: 4 µg/mL
[13]
  MIC / MEC: 1 µg/mL
[14]; AMB:10-ZOL
  FICI: 2
[14]; CAS:10-ZOL
  FICI: 2.25
[14]; ITR:10-ZOL
  FICI: 1.5
[14]; VOR:10-ZOL
  FICI: 1.5
[14]; with 5FC
  bisphosphonate MICc: 0.5
[14]; with AMB
  bisphosphonate MICc: 0.5
[14]; with CAS
  bisphosphonate MICc: 1
[14]; with FLC
  bisphosphonate MICc: 0.25
[14]; with ITR
  bisphosphonate MICc: 0.25
[14]; with KET
  bisphosphonate MICc: 0.25
[14]; with VOR
  bisphosphonate MICc: 0.25
[15]; 5FC:10-ZOL
  FICI: 2.25
[15]; KET:10-ZOL
  FICI: 0.53
[15]; VOR:10-ZOL
  FICI: 0.53
[15]; with 5FC
  bisphosphonate MICc: 1
[15]; with AMB
  bisphosphonate MICc: 2
[15]; with CAS
  bisphosphonate MICc: 1
[15]; with FLC
  bisphosphonate MICc: 1
[15]; with ITR
  bisphosphonate MICc: 0.25
[15]; with KET
  bisphosphonate MICc: 0.125
[15]; with VOR
  bisphosphonate MICc: 0.125
[16]
  MIC / MEC: 0.5 µg/mL
[17]
  MIC / MEC: 0.5 µg/mL
[18]
  MIC / MEC: 2 µg/mL
[19]
  MIC / MEC: 2 µg/mL
[20]; 5FC:10-ZOL
  FICI: ≥4
[20]; AMB:10-ZOL
  FICI: 1.5
[20]; CAS:10-ZOL
  FICI: 1.5
[20]; FLC:10-ZOL
  FICI: 0.53
[20]; ITR:10-ZOL
  FICI: 0.53
[20]; VOR:10-ZOL
  FICI: 0.9
[20]; with 5FC
  bisphosphonate MICc: 0.25
[20]; with AMB
  bisphosphonate MICc: 0.25
[20]; with CAS
  bisphosphonate MICc: 0.25
[20]; with FLC
  bisphosphonate MICc: 0.25
[20]; with ITR
  bisphosphonate MICc: 0.25
[20]; with KET
  bisphosphonate MICc: 0.25
[20]; with VOR
  bisphosphonate MICc: 0.125
[21]
  MIC / MEC: 4 µg/mL
[22]
  MIC / MEC: 2 µg/mL
[23]; 5FC:10-ZOL
  FICI: ≥4
[23]; CAS:10-ZOL
  FICI: ≥4
[23]; FLC:10-ZOL
  FICI: 0.52
[23]; with 5FC
  bisphosphonate MICc: 2
[23]; with AMB
  bisphosphonate MICc: 2
[23]; with CAS
  bisphosphonate MICc: 1
[23]; with FLC
  bisphosphonate MICc: 2
[23]; with ITR
  bisphosphonate MICc: 4
[23]; with KET
  bisphosphonate MICc: 1
[23]; with VOR
  bisphosphonate MICc: 2
[24]; 5FC:10-ZOL
  FICI: 3
[24]; CAS:10-ZOL
  FICI: 2
[24]; VOR:10-ZOL
  FICI: 1.16
[24]; with 5FC
  bisphosphonate MICc: 1
[24]; with AMB
  bisphosphonate MICc: 0.25
[24]; with CAS
  bisphosphonate MICc: 1
[24]; with FLC
  bisphosphonate MICc: 0.25
[24]; with ITR
  bisphosphonate MICc: 0.5
[24]; with KET
  bisphosphonate MICc: 1
[24]; with VOR
  bisphosphonate MICc: 0.125
[25]; 5FC:10-ZOL
  FICI: 1
[25]; CAS:10-ZOL
  FICI: 0.5
[25]; FLC:10-ZOL
  FICI: 1.5
[25]; KET:10-ZOL
  FICI: 0.5
[25]; VOR:10-ZOL
  FICI: 0.8
[25]; with 5FC
  bisphosphonate MICc: 0.25
[25]; with AMB
  bisphosphonate MICc: 0.125
[25]; with CAS
  bisphosphonate MICc: 0.125
[25]; with FLC
  bisphosphonate MICc: 0.5
[25]; with ITR
  bisphosphonate MICc: 0.125
[25]; with KET
  bisphosphonate MICc: 0.125
[25]; with VOR
  bisphosphonate MICc: 0.125
[26]
  MIC / MEC: 1 µg/mL
[27]
  MIC / MEC: 1 µg/mL
[28]
  MIC / MEC: 4 µg/mL
[29]; 5FC:10-ZOL
  FICI: ≥4
[29]; CAS:10-ZOL
  FICI: 2
[29]; VOR:10-ZOL
  FICI: 0.53
[29]; with 5FC
  bisphosphonate MICc: 1
[29]; with AMB
  bisphosphonate MICc: 0.25
[29]; with CAS
  bisphosphonate MICc: 4
[29]; with FLC
  bisphosphonate MICc: 0.5
[29]; with ITR
  bisphosphonate MICc: 0.5
[29]; with KET
  bisphosphonate MICc: 2
[29]; with VOR
  bisphosphonate MICc: 0.125
[30]
  MIC / MEC: 1 µg/mL
[31]; ITR:10-ZOL
  FICI: 0.61
[31]; with 5FC
  bisphosphonate MICc: 1
[31]; with AMB
  bisphosphonate MICc: 0.125
[31]; with CAS
  bisphosphonate MICc: 1
[31]; with FLC
  bisphosphonate MICc: 0.125
[31]; with ITR
  bisphosphonate MICc: 0.125
[31]; with KET
  bisphosphonate MICc: 0.125
[31]; with VOR
  bisphosphonate MICc: 0.125
[32]
  MIC / MEC: 1 µg/mL
[33]
  MIC / MEC: 4 µg/mL
[34]; 5FC:10-ZOL
  FICI: 1.5
[34]; AMB:10-ZOL
  FICI: 2
[34]; with 5FC
  bisphosphonate MICc: 0.5
[34]; with AMB
  bisphosphonate MICc: 0.5
[34]; with CAS
  bisphosphonate MICc: 0.25
[34]; with FLC
  bisphosphonate MICc: 0.25
[34]; with ITR
  bisphosphonate MICc: 0.125
[34]; with KET
  bisphosphonate MICc: 1
[34]; with VOR
  bisphosphonate MICc: 0.25
[35]; CAS:10-ZOL
  FICI: 2.13
[35]; KET:10-ZOL
  FICI: 0.5
[35]; VOR:10-ZOL
  FICI: 1.48
[35]; with 5FC
  bisphosphonate MICc: 0.5
[35]; with AMB
  bisphosphonate MICc: 0.063
[35]; with CAS
  bisphosphonate MICc: 1
[35]; with FLC
  bisphosphonate MICc: 0.125
[35]; with ITR
  bisphosphonate MICc: 0.125
[35]; with KET
  bisphosphonate MICc: 0.125
[35]; with VOR
  bisphosphonate MICc: 0.5

From article PMC12892976, “Alkylation-based optimization of antifungal FPPS inhibitors yields a potent, broad-spectrum lipophilic zoledronate derivative” (mBio, 2025)
